Test [1] concerns human primary NK cells. Put plainly: IFNγ production in supernatants of purified NK cells (ELISA). Type of test: cell-based. Conditions: 1 day. The procedure:
FIG. 1 IFNγ production by primary NK cells following stimulation. Human primary NK cells were isolated from peripheral blood mononuclear cells (PBMCs) of normal controls using positive selection with CD56 magnetic beads (Miltenyi Biotec Auburn. CA). […] At the last 6 hrs of stimulation, golgistop (monensin) was added to block the secretion of IFNγ. Stimulated PBMCs were surface stained with FITC-conjugated CD3 and PE-congugated CD56 monoclonal antibodies (BD), washed, fixed, and permeabilized. After washing, cells were incubated with APC-conjugated anti IFNγ monoclonal antibody. Expression of IFNγ was evaluated on 5000 events of gated CD3 negative and CD56 positive NK cell populations. The % of NK populations producing IFNγ is labeled at the upper right quadrant of the dot plot. (B) IFNγ production in the supernatants. […] The cell pellets from (B) were analyzed for gene expression using qPCR with Taqman Assay primers. […]
FIG. 7 Dose-dependent effects of lunasin on IFNγ production, Human NK cells isolated as described in FIG. 1 were stimulated with IL-12 at 1 or 10 ng/ml in the absence (A) or presence (B) of various concentrations of lunasin. One day following stimulation, The production of IFNg in the supernatants was determined using ELISA. […]
One day following stimulation. The production of IFNg in the supernatants was determined using ELISA. […]

Test [2] deals with human primary NK cells. Put plainly: Gene expression by primary NK cells (real time qPCR, Taqman Assay). Type of test: cell-based. An excerpt: FIG. 3 Synergistic effects of lunasin and cytokines on gene expression by human primary NK cells. […] One day following the stimulation, the cell pellets were resuspended in Trizol Reagents for total RNA extraction. The first-strand cDNA was synthesized followed by real time qPCR using Taqman Assay with primers for IFNγ(IFNG), granzyme B (GZMB), granulysin (GNLY), chemokine (C-C motif) ligand 3 or CCL3 (CCL3), CCL4 (CCL4). Granulocyte-macrophage colony-stimulating factor or GM-CSF (CSF2) TGFβ (TGFB) and TGFβ receptor (TGFBR2) in ABI 7300 (Applied Biosystems by Life Technologies, Carlsbad CA) Data are presented as mean±SD from 2 duplicates. Results shown are representative over 5 different normal controls. […]
One day following the stimulation, the cell pellets were resuspended in Trizol Reagents for total RNA extraction. The first-strand cDNA was synthesized followed by real time qPCR using Taqman Assay with primers for IFNγ (IFNG), granzyme B (GZMB), granulysin (GNLY), chemokine (C-C motif) ligand 3 or CCL3 (CCL3), CCL4 (CCL4), Granulocyte-macrophage colony-stimulating factor or GM-CSF (CSF2), TGFβ (TGFB) and TGFβ receptor (TGFBR2) in ABI 7300 (Applied Biosystems by Life Technologies, Carlsbad, Calif.). Data are presented as mean±SD from duplicates. Results shown are representative over 5 different normal controls.
Following 1, 2, and 3 days of stimulation, the cell pellets were lysed in Trizol Reagents for total RNA extraction. The first-strand cDNA was synthesized followed by real time qPCR using Taqman Assay with primer for TGFB1 and TGFBR2 in ABI 7300. Results are presented as mean±SD from duplicates. […]
Freshly isolated human NK cells from peripheral blood mononuclear cells (PBMCs) of normal control using positive selection with CD56 magnetic beads (Miltenyi Biotec, Auburn, Calif.) were stimulated with medium only (−), IL-12 (10 ng/ml) or IL-12 (10 ng/ml)+lunasin (5 μM) for 1 day. The cell pellets were lysed in Trizol Reagents for total RNA extraction. The first-strand cDNA was synthesized followed by real time qPCR using Taqman Assay with primer for inhibitory receptors KIR3DL1 (upper panel) and KIR3DL2 (lower panel) in ABI 7300.
For orientation: Quantitative PCR measures a nucleic acid by following its amplification.

In the case of lunasin, in the test on human primary NK cells [1], the “production of IFNγ in the supernatants” value was “moderate effects”. Moreover, in the test with human primary NK cells [2] (1 day), the CCL3 gene expression entry was “sufficient to up-regulate”, the CCL4 gene expression result was “sufficient to up-regulate” and the “CSF2 (GM-CSF) gene expression” value is on record as “sufficient to up-regulate”. The GMT gene expression entry with human primary NK cells [2] (1 day, lunasin alone) is listed as “no effects”. Also, the IFNG gene expression result with human primary NK cells [2] (human cells, qPCR) is on record as “moderate effects”.
